“Also recorded” adds a separate entry of the source. Structures can show the parent of a compound that is named as a salt.
Tests used:
steatosis = settings: 400-1000 IU/day for 4-10 months, cited from earlier work
Pooled human hepatocytes = test: Hepatocyte elimination (in vitro metabolic stability, percent parent remaining by LC/MS/MS); type: in vitro ADME; settings: for Rate of hepatocyte elimination / stability, comparison in words: compared with other forms
Excerpt: In vitro experiments with isotopically enriched cystamine and cysteamine in hepatocytes.
The assessment of in vitro metabolic stability provides a means to measure the susceptibility of a test compound to biotransformation by the liver. While liver microsomes primarily assess cytochrome P450 system-mediated metabolism (phase I metabolism), hepatocytes represent a complete, undisrupted metabolic system, including cofactors, and thus assess both phase I and phase II metabolism. In all cases, the metabolic stability of test compounds was determined by monitoring, via LC/MS/MS, the percent parent compound remaining versus time of incubation in human hepatocytes.
Pooled human hepatocytes (catalog number HMCS10, ThermoFischer Scientific) were thawed according to the manufacturers instructions. Thawed hepatocytes were washed by centrifugation and replated in Williams' Medium E supplemented with Heptocyte Plating Supplement Pack, Serum-containing.
Cells were diluted to 1,000,000 per ml in maintenance media (Williams' E Media supplemented with Hepatocyte Maintenance Supplement Pack, Serum-free). 500 μl of cell suspension was added to each well of a microtiter plate containing 500 μl of the deuterated test agent and placed on an orbital shaker at 120 rpm at 37 C. At the appropriate time point 50 μl aliquots were removed from the well and added to 50 μl of ice cold ethyl acetate and vortexed for 5 min and froze until chromatography analysis.

cystinotic fibroblasts [1] = test: Cystine re-accumulation after washout in cystinotic fibroblasts; type: cell-based, human; settings: for Cystine reaccumulation after washout, D4n vs D8: 50 μM for 3 hours, then media 1 h, 3 h, 16 h
Experimental: (§1) In vitro experiments with isotopically enriched cystamine in cystinotic fibroblasts. Fibroblasts from a de-identified cystinotic patient were split 3× from 2 plates into 36 plates. Three different drugs were used for the experiments: cystamine (non-labeled), d2-cystamine, and d4-cystamine. There were two time series for each drug. The first was with constant drug incubation and included: 0, 10 min, 30 min, 1 h, 3 h, and 5 h. The other series included a washout after 3 h drug incubation, using fresh media following a PBS wash, and included the timepoints: 0, 30 min, 1 h, 3 h, 5 h, and 17 h. A direct quench and extraction technique were used for harvesting all cells to minimize further oxidation and metabolism. This included 2× washes with PBS that included 5 mM N-ethylmaleimide for trapping free thiol groups, and then scraping the plates with an acidified organic solvent extraction solution containing both d4-cystine and d4-cysteamine (plus d-8 cystamine) as internal standards. All samples were run on an API 4500 triple quadrupole LC-MS/MS, with selective reaction monitoring (SRM/MRM) for the following compounds of interest: cystine, NEM-cysteamine, NEM-cysteine, cystamine, and 2-(methylthio)ethylamine. All data fit well to single exponential curves (either decay or association), except where mentioned.
Cystine measurement after washout: Fibroblast cultures were exposed to 100 uM cystamine/d2-cystamine/d4-cystamine for 3 h. Following incubation, cells were washed with PBS, and then incubated with regular media (containing FBS) for the following timepoints: 0 min, 30 min, 1 h, 3 h, 5 h, and 17 h. Cells were harvested identically as described previously.
(§2) Fibroblasts from a de-identified cystinotic patient were split 3× from 2 plates into 18 plates. Two different drugs were used for the experiments: D4n-cystamine, and D8-cystamine. There were two time series for each drug. The first was with constant drug incubation and included: 0, 15 min, 30 min, 1 hr, and 3 hr. The other series included a washout after 3 hours of drug incubation, using fresh media following a PBS wash, and included the time-points: 0, 1 hr, 3 hr, and 16 hr. A direct quench and extraction technique was used for harvesting all cells to minimize further oxidation and metabolism. […] All samples were run on an API 4500 triple quadruple LC-MS/MS, with selective reaction monitoring (SRM/MRM) for the following compounds of interest: cystine, NEM-cysteamine, NEM-cysteine, and cystamine. All data fit well to single exponential curves (either decay or association), except where mentioned.
Fibroblast cultures were exposed to 50 μM cystamine (D8 or D4n) for 3 hours. Following incubation, cells were washed with PBS and then incubated with regular mediate containing FBS for 1 h, 3 h, and 16 h. Cells were harvested as above. […] Cystine reaccumulation between D4n-cystamine and D8-cystamine are very similar, indicating similar levels of drug remaining during the washout timepoints (FIG. 15).

cystinotic fibroblasts [2] = test: Cystine depletion during constant drug exposure in cystinotic fibroblasts; type: cell-based, human; settings: for Reduction of intracellular cystine levels: cystamine 50, 100, 200 μM, cysteamine 200 μM (FIG. 1); for Rate of intracellular cystine depletion, comparison in words: 100 uM constant exposure, 0-5 h, vs cystamine
Experimental: as §1
Following incubation, cells were washed 2× in PBS containing N-ethylmaleimide.
as §2

[3] = test system: intracellular cystine (circulating white blood cells); settings: taken regularly; measured in circulating white blood cells; cited from earlier work
cystinotic fibroblasts [4] = test: Intracellular NEM-cysteamine, NEM-cysteine, cystamine and mixed disulfide levels in cystinotic fibroblasts; type: cell-based, human; settings: for NEM-cysteamine level during constant incubation: 100 uM drug, early timepoints, normalized against d4-cystine; for Intracellular cystamine level during constant drug incubation: FIG. 10; for NEM-cysteine level after 3 h incubation and washout: washout period
Experimental: as §1
NEM-cysteamine and NEM-cysteine during constant incubation. Fibroblast cultures were exposed to drug (either cystamine, d2-cystamine, or d4-cystamine) and harvested as described on page 2 for the cystine depletion curve. NEM-cysteamine (or NEM-d1-cysteamine or NEM-d2-cysteamine) was measured for each respective plate and normalized against the signal for d4-cystine.
NEM-cysteamine during washout. Fibroblast cultures were exposed to drug (either cystamine, d2-cystamine, or d4-cystamine) for 3 h were then exposed to media for various timepoints and harvested as previously described.
NEM-cysteine during washout. Fibroblast cultures were exposed to drug (either cystamine, d2-cystamine, or d4-cystamine) for 3 h were then exposed to media for various timepoints and harvested as previously described.
Cystamine during constant drug incubation. Fibroblast cultures were exposed to drug (either cystamine, d2-cystamine, or d4-cystamine) for various timepoints following harvesting as described earlier. Cystamine could be measured in the non-labeled cystamine incubation as well as the d4-cystamine incubation. d2-cystamine could not be accurately measured due to a strong background interference signal corresponding to that mass. No cystamine could be measured in the washout experiments.

cystinotic fibroblasts [5] = test: as above; type: cell-based, human; settings: cystamine 50, 100, 200 μM compared with cysteamine 200 μM (FIG. 2)
[6] = test system: C57BL/6 male mice on CDAHFD diet; test: In vivo NASH model, treatment phase (8 weeks CDAHFD, then 2 weeks daily gavage); settings: for Fatty deposits / fat globules in liver, H&E staining: 200 mg/kg/day
Experimental: Liver Inflammatory Cells. CD11b stains macrophages and microglia. CD11b staining of liver tissue was taken after 10 weeks of CDAHFD in three groups of mice. […] At 8 weeks, treatment group 2 (“C2”) mice started gavage feeding with D2-Cystamine at 200 mg/kg/day once daily gavage, and treatment group 3 (“C3”) mice received D4-Cystamine at 200 mg/kg/day by once daily gavage.
(§3) In vivo NASH Models. NASH models from normal C57BL/6 male mice on CDAHFD diet (choline deficient, L-amino acid defined, high fat diet with restricted amount of methionine) were used. Two deuterated cystamine molecules were tested:
(§4) Two phase study was performed: (1) A prevention and (2) a treatment phase. 48 Mice were separated into nine groups of mice as described below. Histology at end of each study was performed looking for specific features of NASH (steatohepatitis, ballooning, fibrosis). The primary endpoint was plasma ALT measurement. Gene expression studies for fibrosis, inflammation were also performed.
(§5) Prevention Phase. Group 1: Control mice on CDAHFD for 8 weeks. Blood drawn at 0, 4, and 8 weeks. Group 2: Mice on CDAHFD plus D2 at 200 mg/kg/day for 8 weeks. Blood drawn at 0, 4, and 8 weeks. Group 3: Mice on CDAHFD plus D4 at 200 mg/kg/day for 8 weeks. Blood drawn at 0, 4, and 8 weeks. Group 4: Control mice (n=4) continue on CDAHFD for 2 weeks. Blood at baseline and at 2 weeks. Liver histology at 2 weeks. Group 5: Mice (n=4) on CDAHFD for 2 weeks plus D2 at 200 mg/kg/day administered via daily gavage. Blood at 0 and 2 weeks and histology at 2 weeks. Group 6: Mice (n=4) on CDAHFD for 2 weeks plus D4 at 200 mg/kg/day administered via daily gavage. Blood at 0 and 2 weeks and histology at 2 weeks.
Treatment Study Results. Groups 4, 5 and 6 mice received 8 weeks of CDAHDF diet before beginning treatment with deuterated compounds of the disclosure. During the treatment phase the mice continued to receive CDAHDF diet. Four mice were set in each group: control (C1) not receiving any drug; treatment (C2) receiving 200 mg/kg of cystamine D2 by once daily gavage; and treatment (C3) receiving 200 mg/kg cystamine D4 by once daily gavage.

[7] = test system: C57BL/6 male mice on CDAHFD diet; test: In vivo NASH model, prevention phase (drug in drinking water, 8 weeks); settings: about 200 mg/kg/day in drinking water, n=8 per group
Experimental: as §3, §4
Drug (D2 or D4) was administered in drinking water at a concentration to deliver animals about 200 mg/kg/day of drug. Daily weight. Volume of fluid drunk/day was also measured.
as §5, with “Group 6: Mice (n=4) on CDAHFD for 2 weeks plus D4 at 200 mg/kg/day administered via daily gavage. Blood at 0 and 2 weeks and histology at 2 weeks.” left out

Compound: vitamin E
- Mean AST level after treatment (steatosis; decreased from 104±61 IU/L): 33±11 IU/L
- Mean ALT level after treatment (steatosis; decreased from 175±106 IU/L): 40±26 IU/L

Compound: [2H]C([2H])(CN)SSC([2H])([2H])CN [drawing 25]
- Hepatocyte elimination, % remaining (Pooled human hepatocytes; TIME 0 min): 100%
- Hepatocyte elimination, % remaining (Pooled human hepatocytes; TIME 15 min): 131.4%
- Hepatocyte elimination, % remaining (Pooled human hepatocytes; TIME 30 min): 35.9%
- Hepatocyte elimination, % remaining (Pooled human hepatocytes; TIME 60 min): 14.5%

Compound: [2H]C([2H])(N)C([2H])([2H])SSC([2H])([2H])C([2H])([2H])N [D8-cystamine]
- Cystine reaccumulation after washout, D4n vs D8 (cystinotic fibroblasts [1]): very similar

Compound: [2H]C([2H])(N)CSSCC([2H])([2H])N [D4n-cystamine, 2,2′-disulfanediylbis(ethan-1,1-d2-1-aminium) chloride]
- Cystine reaccumulation after washout, D4n vs D8 (cystinotic fibroblasts [1]): very similar

Compound: Cl.[2H]C([2H])(S)CN [D2-cysteamine, 2-mercaptoethan-2,2-d2-1-aminium chloride]
- Rate of hepatocyte elimination / stability, comparison in words (Pooled human hepatocytes): slower rate than cysteamine bitartrate

Compound: [2H]C(CN)SSC([2H])CN (stereo not shown) [drawing 24]
- Hepatocyte elimination, % remaining (Pooled human hepatocytes; TIME 0 min): 100%
- Hepatocyte elimination, % remaining (Pooled human hepatocytes; TIME 15 min): 22.6%
- Hepatocyte elimination, % remaining (Pooled human hepatocytes; TIME 30 min): 24.3%
- Hepatocyte elimination, % remaining (Pooled human hepatocytes; TIME 60 min): 0%

Compound: NCCS [Cysteamine, reference compound]
- Reduction of intracellular cystine levels (cystinotic fibroblasts [2]): effective and more rapid in its response time
- Depletion of intracellular cystine [3]: up to 90%

Compound: NCCSSCCN [Cystamine]
- Cystine level 17 h after washout versus plates not exposed to cystamine (cystinotic fibroblasts [1]; 3 h incubation with 100 μM cystamine, then cystamine-free media): identical to the 17 h cystine measurement
- NEM-cysteamine level during constant incubation (cystinotic fibroblasts [4]): faster/higher; also recorded: Higher levels of cysteamine
- NEM-cysteamine level during constant incubation (cystinotic fibroblasts [4]; listed as non-labeled cystamine): highest
- Intracellular cystamine level during constant drug incubation (cystinotic fibroblasts [4]): deplete rapidly
- Intracellular cystamine level during constant drug incubation (cystinotic fibroblasts [4]; listed as cystamine): depletes rapidly
- NEM-cysteine level after 3 h incubation and washout (cystinotic fibroblasts [4]): rise and increase
- Reduction of intracellular cystine levels (cystinotic fibroblasts [2]): effective in reducing intracellular cystine levels in a dose-response fashion
- Conversion of intracellular cystine to mixed disulfide (MD) of cysteine-cysteamine (cystinotic fibroblasts [5]): delayed
- Hepatocyte elimination, % remaining (Pooled human hepatocytes; TIME 0 min): 100%
- Hepatocyte elimination, % remaining (Pooled human hepatocytes; TIME 15 min): 18.5%
- Hepatocyte elimination, % remaining (Pooled human hepatocytes; TIME 30 min): 6.5%

Compound: [2H]C(CN)SSC([2H])CN (stereo not drawn) [D2-Cystamine, 2,2′-disulfanediylbis(ethan-2-d-1-amine)dihydrochloride]
- Cystine re-accumulation after washout, comparison in words (cystinotic fibroblasts [1]; 100 uM for 3 h, then drug-free media up to 17 h, vs cystamine): slightly faster
- ALT versus untreated control group ([6]; 200 mg/kg once daily gavage, 2 weeks): significantly lower
- Hepatic fibrosis, Sirius Red staining of liver sections ([6]; 200 mg/kg once daily gavage, 2 weeks, listed as D2): significant reduction in the amount of positive liver staining
- Hepatic fibrosis, Sirius Red staining of liver sections ([6]; 200 mg/kg once daily gavage, 2 weeks, listed as cystamine D2): very significant reduction in hepatic fibrosis
- Number of CD11b positive cells in liver tissue versus control group ([6]; 200 mg/kg/day once daily gavage, 2 weeks): statistically significant reduction
- Fatty deposits / fat globules in liver, H&E staining ([6]; 2 weeks): reduction in fatty globules
- Fatty deposits / fat globules in liver, H&E staining ([6]; 2 weeks, listed as D2): reduced fatty deposits compared to control
- TIMP expression, qPCR, versus control ([6]; liver, 2 weeks of treatment): significant reduction
- NEM-cysteine level after 3 h incubation and washout (cystinotic fibroblasts [4]): rise and increase
- NEM-cysteine level after 3 h incubation and washout (cystinotic fibroblasts [4]; listed as D2): higher cysteine levels
- Rate of intracellular cystine depletion, comparison in words (cystinotic fibroblasts [2]; listed as D2-cystamine): slightly slower kinetics
- Rate of intracellular cystine depletion, comparison in words (cystinotic fibroblasts [2]; listed as d2-Cystamine): slightly slower kinetics
- Rate of intracellular cystine depletion, comparison in words (cystinotic fibroblasts [2]; listed as d2-cystamine): slower
- Rate of hepatocyte elimination / stability, comparison in words (Pooled human hepatocytes): slower than non-deuterated cystamine
- ALT levels at 8 weeks versus control group [7]: statistically significant difference

Compound: 2-aminoethane-1-d-1-thiol hydrochloride [D-cysteamine]
- Rate of hepatocyte elimination / stability, comparison in words (Pooled human hepatocytes): slower rate than cysteamine bitartrate

Compound: NCCS.O=C(O)C(O)C(O)C(=O)O (stereo not shown) [Cysteamine Bitartrate, reference compound]
- Hepatocyte elimination, % remaining (Pooled human hepatocytes; TIME 0 min): 100%
- Hepatocyte elimination, % remaining (Pooled human hepatocytes; TIME 15 min): 15.4%
- Hepatocyte elimination, % remaining (Pooled human hepatocytes; TIME 30 min): 2.7%
- Hepatocyte elimination, % remaining (Pooled human hepatocytes; TIME 60 min): 1.2%
